Values quoted from earlier work as cited in patent publication US8709498B2, “Method of stimulating tissue healing” (priority 2001, dated 2014).
Like-named read-outs stand apart in the source and are kept apart here. Blank lines part the entries; values can stand above or below the compound they belong to.

Key:
[1] = test system: endothelial cells of the human umbilical vein; details: HOCl 5 nM/1.2×10^5 cells, in vitro; no cell death
[2] = test system: polymorphonuclear neutrophils; details: HOCl 250 μM
human fibroblasts [3] = test system: human fibroblasts
[4] = test system: polymorphonuclear neutrophils; details: read-out: IC50, chemiluminescence decrease
mouse macrophages = details: abolished by nitrite excess
human skin fibroblasts = human skin fibroblasts in vitro
endothelial cells = details: in vitro, (HOCl)=35 μM
human fibroblasts [5] = test system: human fibroblasts; remark: listed apart in the source
macrophages [6] = details: (NaOCl)=1.0075 mM, after two hours of contact in vitro
[7] = test system: rat macrophage like-cells RAW 264.7
[8] = test system: human macrophages, fibroblasts and keratinocytes
macrophages [9] = test system: macrophages
IL-8 = details: rheumatoid arthritis fibroblast-like synoviocytes
TNF-α = details: dose-dependent
IL-6 = details: rheumatoid arthritis fibroblast-like synoviocytes
[10] = not given; remark: listed apart in the source
[11] = test system: human synoviocytes-like fibroblastes; details: (TauCl)=400-500 μM
rat RAW264.7 cells = details: for Km: read-out: Km of take-up
[12] = test system: macrophages or macrophage-line cells
mouse dendritic cells = details: incubated 24 hours
IL-1α = details: all stimulation levels

- HOCl concentration with cell contractions, rounding and loss of adherence (human endothelial cells; rounded within 10 minutes, majority lost adherence after three hours): 50 µM
- HOCl molecules taken up within the first 10 minutes (human fibroblasts [3]): ~80%
- IC50 [4]: 100 µM
- HOCl molecules taken up within 15 minutes (endothelial cells): 100%
- HOCl molecules taken up within ½ minute (endothelial cells): 50%
Structure (SMILES): OCl [HOCl, hypochlorous acid]
- HOCl concentration above which cell toxicity increases progressively (human endothelial cells; exposition time-dependent): > 25 µM
- HOCl concentration that is not toxic (human endothelial cells; human endothelial cells in vitro): ≤ 25 µM
- effect on cell growth [1]: temporary stop of cell growth
- effect on hydrogen peroxide production [2]: inhibits
- HOCl concentration above which cell death increases significantly (mouse macrophages): > 0.125 mM
- concentration that does not alter viability or induce cytotoxicity or cell apoptose (human skin fibroblasts): < 50 µM

- stability (levels below 5 g/l of available chlorine): under 2 weeks
- stability of NaOCl oxidative activity (pH value between 10 and 10.5 (EP 0471129 A1)): greater than 24 months
- NaOCl stability (temperature increased to 37° C.): below 24 hours
- NaOCl concentration at which cell morbidity is complete (human fibroblasts [5]): 16.8 mM
- cells alive (human fibroblasts [5]; 67,165 μmol/l<(NaOCl)<671,655 μmol/l): 100%
- cells alive (macrophages [6]): 95%
- cells that keep their adherence to substrates (macrophages [6]): 40%
Structure (SMILES): OCl [NaOCl, sodium hypochlorite]
- NaOCl concentration of highest efficiency in stimulating growth and cell proliferation (human fibroblasts [5]; FCS presence (2%)): 33.6 µM
- NaOCl concentration at which viability is not altered and growth and proliferation are stimulated (human fibroblasts [5]; FCS presence (2%), 24 hours of exposure): < 672 µM
- NaOCl concentration at which cell viability is altered (human fibroblasts [5]; observed for 24 hours after a 15-minute exposition): ≥ 1,0075 mM
- NaOCl concentration at which cell viability is highly altered (irreversible) [7]: 1 mM
- NaOCl concentration at which toxicity can be neutralized by an antioxidant addition [8]: < 3.358 mM
- NaOCl concentration at which toxicity is very low with an antioxidant presence [8]: < 1.679 mM
- NaOCl concentration with high toxicity [8]: > 6.7165 mM
- NaOCl concentration at which toxicity cannot be neutralized by antioxidants ([8]; antioxidants at physiological concentrations): 13.433 mM

Structure (SMILES): O=C(O)[C@H](CO)NCl [SerCl, Serine N-chloramine]
- inhibition of nitric oxide generation (macrophages [9]; (SerCl)=300 μM, after 24 hours): 22%
- inhibition of nitric oxide generation (macrophages [9]; (SerCl)=300 μM, immediately after its preparation): 85%

Structure (SMILES): O=S(=O)(O)CCNCl [TauCl, taurine N-chloramine]
- IC50 (IL-8): ~450 µM
- bactericidal activity (E. Coli): very low bactericidal activity
- IC60, TNF-α transcriptional velocity (TNF-α): 400 µM
- IC50 (IL-6): ~225 µM
- effect on hydrogen peroxide production [2]: no effect
- TNF-α and ROS generation (rat DCs; (TauCl)=250 μM): not inhibited
- production of IL-10, IL-12, PGE2 and nitric oxide (rat DCs; (TauCl)=250 μM): inhibits
- release of ROS, nitric oxide, PGE2, TNF-α, IL-6, IL-10 and IL-12 (rat DCs; (TauCl)=500 μM, two hours pre-incubated): almost completely inhibits
- oxidative activity decrease ([10]; physiological pH (7.4), 37° C.): below 5 %/hour
- IC50 [4]: 550 µM
- viability preserved [11]: ≥ 95%
- release of IL-2 and IL-6 (T cells): inhibits
- Vmax of take-up (rat RAW264.7 cells; LPS-stimulated macrophages): 82.6 pmol/min/10^6 cells
- Km (rat RAW264.7 cells; LPS-stimulated macrophages): 45.9 µM
- Vmax of take-up (rat RAW264.7 cells; relaxed rat RAW264.7 cells): 51.3 pmol/min/10^6 cells
- Km (rat RAW264.7 cells; relaxed rat RAW264.7 cells): 23.3 µM
- TauCl concentration that alters cell viability [12]: > 1 mM
- TauCl concentration above which cell viability decreases significantly (mouse dendritic cells): > 0.5 mM
- concentration that does not alter viability or induce cytotoxicity or cell apoptose (human skin fibroblasts): ≤ 100 µM
- TauCl concentration at which cell viability (mitochondrial activity) is not altered (mouse T cells): 30 to 300 µM
- TauCl concentration that is cytotoxic (mouse T cells): 300 µM
- effect on IL-1α production (IL-1α): no effect
- AP-1 DNA-bonding (AP-1; (TauCl)=250 μM): without altering
- DNA-bonding activity of AP-1 (AP-1; TauCl 500 μM): decreases
- inhibition of nitric oxide generation (macrophages [9]; 100 µM): 8-22%
- inhibition of nitric oxide generation (macrophages [9]; 600 µM): 98%

Structure (SMILES): O=S(=O)([O-])CCNCl.[Na+] [taurine N-chloramine sodium salt]
- stability decrease in 15 days ([10]; aqueous solution, pH=8.3): around 30%
- stability decrease in 65 days ([10]; aqueous solution, pH=8.3): around 61%
- stability decrease per day after the first 15 days ([10]; aqueous solution, pH=8.3): around 0.71 % per day

Structure (SMILES): NCCS(=O)(=O)O [taurine]
- Vmax of take-up (rat RAW264.7 cells; LPS-stimulated macrophages): 116.3 pmol/min/10^6 cells
- Km (rat RAW264.7 cells; LPS-stimulated macrophages): 17.3 µM
- Vmax of take-up (rat RAW264.7 cells; relaxed rat RAW264.7 cells): 90.9 pmol/min/10^6 cells
- Km (rat RAW264.7 cells; relaxed rat RAW264.7 cells): 28.1 µM
- effect on nitric oxide generation (macrophages [9]; taurine alone): without effect
